Laboratory results reported in US12234229B2, “Sphingosine kinase inhibitor amidoxime prodrugs” (University of Virginia Patent Foundation, priority 2016, dated 2025).

What was measured:
[1] = system: sphingosine kinase type 2 (SphK2); test: Blood sphingosine 1-phosphate (S1P) in mice after oral dosing, LC-MS-MS; type: in vivo; conditions: C57Bl/6 mice, oral gavage 20 mg/kg, blood drawn immediately, at 2 h, 6 and 24 h, FIG. 1A
Description: FIGS. 1A-1B. Four C57Bl/6 mice were dosed by oral gavage with 20 mg/kg of Compound 6. At the indicated times, blood was drawn, whole prepared for analysis, and the amount sphingosine 1-phosphate (S1P) was quantified by LC-MS-MS (FIG. 1A). The rise in S1P is indicative of inhibition of sphingosine kinase type 2 (SphK2).
Four C57Bl/6 mice were dosed by oral gavage with 20 mg/kg of Compound 6 (Example 113). Blood was drawn immediately, at 2h, 6, and 24 h after administration, whole prepared for analysis, and the amount of sphingosine 1-phosphate (S1P) was quantified by LC-MS-MS, as shown in FIG. 1A.

[2] = biological target: T1, human sphingosine kinase type 2 (hSPHK2) (Homo sapiens, UniProt Q9NRA0); test: Sphingosine kinase assay, recombinant human SPHK2 ([32P]S1P product, scintillation counting); type: biochemical; conditions: read-out: activity hSPHK2 (range estimates of KI values)
T1 construct: purchased; host or cells: Sf9 insect cells (baculovirus)
T1 sequence (Q9NRA0 1-654): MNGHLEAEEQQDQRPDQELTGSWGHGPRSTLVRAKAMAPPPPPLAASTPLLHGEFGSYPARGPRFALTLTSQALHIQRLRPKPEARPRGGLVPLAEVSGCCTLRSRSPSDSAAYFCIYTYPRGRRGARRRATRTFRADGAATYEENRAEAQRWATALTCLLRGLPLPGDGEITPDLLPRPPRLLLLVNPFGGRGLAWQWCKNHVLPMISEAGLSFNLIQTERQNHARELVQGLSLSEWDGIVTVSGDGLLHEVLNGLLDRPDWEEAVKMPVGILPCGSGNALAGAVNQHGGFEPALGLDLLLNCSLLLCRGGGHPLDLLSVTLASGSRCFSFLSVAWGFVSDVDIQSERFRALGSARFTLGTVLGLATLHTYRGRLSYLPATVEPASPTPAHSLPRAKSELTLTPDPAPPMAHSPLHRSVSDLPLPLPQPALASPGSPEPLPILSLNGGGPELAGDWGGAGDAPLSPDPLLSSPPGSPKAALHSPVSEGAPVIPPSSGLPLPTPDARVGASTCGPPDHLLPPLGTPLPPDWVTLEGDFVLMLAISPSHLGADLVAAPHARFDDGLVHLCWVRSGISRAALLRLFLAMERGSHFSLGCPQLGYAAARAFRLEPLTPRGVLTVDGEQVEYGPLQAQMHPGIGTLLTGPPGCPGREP
Description: (§1) Recombinant baculovirus encoding human sphingosine kinase type 1 (SPHK1) was used to infect Sf9 insect cells and after 2-5 days, cleared lysates were prepared and used without further purification. Human SPHK2, which was partially purified from baculovirus-infected Sf9 cell lysates, was purchased from a commercial source. Sphingosine kinase assays were performed using standard protocols. Product [^32P]S1P was recovered by binding to cation exchange paper and quantified by scintillation counting.

[3] = biological target: T2, human sphingosine kinase type 1 (hSPHK1) (Homo sapiens, UniProt Q9NYA1); test: Sphingosine kinase assay, recombinant human SPHK1 ([32P]S1P product, scintillation counting); type: biochemical; conditions: read-out: activity hSPHK1 (range estimates of KI values)
T2 construct: made in house; host or cells: Sf9 insect cells (baculovirus)
T2 sequence (Q9NYA1 whole entry): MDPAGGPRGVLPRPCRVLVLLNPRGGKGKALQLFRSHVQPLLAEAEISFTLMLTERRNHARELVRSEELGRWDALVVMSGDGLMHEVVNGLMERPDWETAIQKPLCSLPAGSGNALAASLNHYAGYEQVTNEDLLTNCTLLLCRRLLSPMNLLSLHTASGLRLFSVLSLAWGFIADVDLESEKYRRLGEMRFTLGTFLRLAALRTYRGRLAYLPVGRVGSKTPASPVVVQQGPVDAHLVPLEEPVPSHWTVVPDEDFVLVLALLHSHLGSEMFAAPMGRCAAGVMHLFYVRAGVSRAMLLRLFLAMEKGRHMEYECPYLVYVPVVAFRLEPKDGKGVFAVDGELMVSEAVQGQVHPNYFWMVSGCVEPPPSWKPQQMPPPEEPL
Description: as §1

[4] = patients, 1-yr trial; cited from earlier work

Compound	Ki [2]	other results
CCCCCCCCOc1ccc(-c2noc([C@@H]3[C@@H](O)CCN3/C(N)=N/O)n2)cc1C(F)(F)F [Compound 6, (2S,3S)—N,3-dihydroxy-2-(3-(4-(octyloxy)-3-(trifluoromethyl)phenyl)-1,2,4-oxadiazol-5-yl)pyrrolidine-1-carboximidamide]	–	amount of sphingosine 1-phosphate (S1P) in blood [1]: rise in S1P
CCCCCCCCc1ccc(CCC(N)(CO)CO)cc1 [fingolimod, 2-amino-2-[2-(4-octylphenyl)ethyl] propane 1,3-diol]	–	hypertension (blood pressure rise) [4]: 2-3 mmHg

The next lines start with results.

Ki [2]	Compound	other results
< 1 µM	CCCCCCCCOc1ccc(-c2noc([C@@H]3[C@@H](O)CCN3C(=N)N)n2)cc1C(F)(F)F [Compound 6A, amino((2S,3S)-3-hydroxy-2-(3-(4-(octyloxy)-3-(trifluoromethyl)phenyl)-1,2,4-oxadiazol-5-yl)pyrrolidin-1-yl)methaniminium chloride]	–
< 1 µM	CCCCCCCCCn1ccc2cc(-c3noc([C@@H]4CCCN4C(=N)N)n3)ccc21 [Compound 17A, (S)-amino(2-(3-(1-nonyl-1H-indol-5-yl)-1,2,4-oxadiazol-5-yl)pyrrolidin-1-yl)methaniminium chloride]	–
> 10 µM	C=COCc1ccc(-c2noc([C@@H]3CCCN3C(=N)N)n2)cc1C(F)(F)F [Compound 77A]	Ki [3]: > 10 µM
